Patent publication US20040058948A1, “Mappicine analogs, methods of inhibiting retroviral reverse transcriptase and methods of treating retroviruses” (priority 2002, published 2004)

Key:
[1] = molecular target: T1, RNA-dependent DNA polymerase activity of HIV reverse transcriptase (Human immunodeficiency virus type 1 group M subtype B, UniProt P04585); assay: RNA-dependent DNA polymerase activity assay of HIV reverse transcriptase; assay type: biochemical, HIV-1; conditions: 10 μM inhibitor concentration, activity with analog / without analog x 100
T1 construct: made in house
Procedure: In separate, representative assays, mappicine analogs were tested for their ability to inhibit the RNA-dependent DNA polymerase activity of HIV reverse transcriptase and for their ability to inhibit the RNase H activity of HIV reverse transcriptase. The assay for RNA-dependent DNA polymerase activity is discussed in Borkow, G. et al., “Inhibition of the Ribonuclease H and DNA Polymerase Activities of HIV-1 Reverse Transcriptase by N-(4-tert-Butylbenzoyl)-2-hydroxy-1-naphthaldehyde Hydrazone,” Biochemistry 1997, 36, 3179-3185, a copy of which is attached hereto, and the disclosure of which is incorporated herein by reference. Assays were carried out in the absence and in the presence of mappicine analogs (10 μM final concentration). The results are reported as % residual activity, which is the RNA-dependent DNA polymerase activity of the enzyme in the presence of the mappicine analog divided by the RNA-dependent activity of the enzyme in the absence of the mappicine analog, multiplied by 100.

[2] = molecular target: RNase H activity of HIV reverse transcriptase (Human immunodeficiency virus type 1 group M subtype B, UniProt P04585); assay: Fluorescence (FRET)-based RNase H activity assay of HIV reverse transcriptase; assay type: biochemical, HIV-1; design: final concentration of 2.5 nM of the p51/p66 RT heterodimer in the assay; made in house; conditions: 10 μM inhibitor concentration, activity with analog / without analog x 100
Procedure: Recently, a fluorescence-based assay to perform preliminary screens in search of HIV RNase H inhibitors has been developed. The assay, which is carried out in 96-well microplates and is adaptable to robotics, is the first high-throughput screen for RNase H and is described in further detail in the Experimental section. HIV-1 RT and human RNase H were cloned, and thus comparative analysis of inhibitor action could be conducted simultaneously.
The assay for RNase H activity of HIV reverse transcriptase was the fluorescence-based assay described in detail in the Experimental section and discussed in U.S. Provisional Patent Application Serial No. 60/318,359. Assays were carried out in the absence and in the presence of mappicine analogs (10 μM final concentration). The results are reported as % residual activity, which is the RNase H activity of the enzyme in the presence of the mappicine analog divided by the RNase H activity of the enzyme in the absence of the mappicine analog, multiplied by 100. Alternatively, the results are reported as % inhibition, which is calculated as the ratio of the RNase H activity of the enzyme in the presence of the mappicine analog to the enzyme activity in the absence of the mappicine analog, multiplied by 100, and then subtracting this number from 100.
Assay for Ribonuclease H Activity Based on Fluorescence Resonance Energy Transfer (FRET)
Preparation of the Fluorophore-RNA/Quencher-DNA Hybrid Duplex Substrate.
The RNA/DNA hybrid duplex substrate for use in the assay comprises an RNA oligonucleotide of sequence 5′-GAU CUG AGC CUG GGA GCU-3′, modified at the 3′-end with Aminolink-2 and derivatized with fluorescein isothiocyanate, to provide a modified RNA oligonucleotide of the sequence 5′-GAU CUG AGC CUG GGA GCU-fluorescein-3′, annealed to a complementary DNA oligonucleotide of the sequence 5′-AGC TCC CAG GCT CAG ATC-3′ modified at the 5′-end with Aminolink-2 and derivatized with the FRET acceptor DABCYL succinimidyl ester, to provide a modified DNA oligonucleotide of the sequence 5′-DABCYL-AGC TCC CAG GCT CAG ATC-3′.
To prepare the 3′-fluorescein-RNA/5′-DABCYL-DNA hybrid duplex substrate, a known amount of 3′-fluorescein-RNA was dissolved in 20 mM Tris buffer (pH 8.0, 37° C.) to provide a final concentration of 5 μM. Two equivalents of the 5′-DABCYL-DNA oligonucleotide were added, and the mixture was heated to 90° C. for 5 min and cooled slowly to room temperature to allow duplex formation. The positioning of the fluorescein donor at the 3′-end of the RNA oligonucleotide and the DABCYL acceptor at the 5′-end of the DNA oligonucleotide provides a very close proximity of the donor and acceptor that results in a very intense quenching of the fluorescein emission in the intact RNA/DNA hybrid duplex substrate due to the spectral overlap of the fluorescence emission of fluorescein with the absorption spectrum of DABCYL. In addition, DABCYL is non-fluorescent, and thus cannot contribute any light emission. Both of these factors result in a very low background and provide a high signal-to-noise in the assay measurements. The ratio of the donor fluorescence in the absence and in the presence of its quencher is approximately fifteen-fold.
Microplate Assay Protocol for the Measurement of RNase H Activity Using the RNA/DNA Hybrid Duplex Substrate.
Reaction assay mixtures contained 5 μl of a stock solution of 2.5 μM RNA/DNA hybrid duplex substrate added to 85 μl of assay buffer (50 mM Tris, pH 8.0, 37° C., containing 60 mM KCl and 2.5 mM MgCl2), prepared in the wells of a 96-well fluorescence microtiter plate, and warmed to 37° C. using the temperature control of the SpectraMax Gemini XS microplate spectrofluorometer (Molecular Devices). Reactions were started by the addition of 5 μl of a solution of recombinant HIV-1 reverse transcriptase (usually providing a final concentration of 2.5 nM of the p51/p66 RT heterodimer in the assay), and mixing using the automatic mixing function of the microplate spectrofluorometer. […]

| Compound | Residual activity (%) Polymerase [1] [%] | Residual activity (%) RNase H [2] [%] | Residual activity (%) Polymerase ([1]; 10 µM) [%] | Residual activity (%) RNase H ([2]; 10 µM) [%] |
| --- | --- | --- | --- | --- |
| COc1ccc2nc3c(c([Si](C)(C)C(C)(C)C)c2c1)Cn1c-3cc(C(O)CCC2CCCCC2)c(C)c1=O (racemic) [4Dδ] | 51 | 87 |  |  |
| COc1ccc2nc3c(c([Si](C)(C)C(C)(C)C)c2c1)Cn1c-3cc(C(O)Cc2ccccc2)c(C)c1=O (racemic) [4Dε] | 49 | 76 |  |  |
| Cc1c(C(O)C(C)(C)C)cc2n(c1=O)Cc1c-2nc2ccccc2c1[Si](C)(C)C (racemic) [5Aβ] | 103 | 77 |  |  |
| Cc1c(C(O)CCC2CCCCC2)cc2n(c1=O)Cc1c-2nc2ccccc2c1[Si](C)(C)C (racemic) [5Aδ] | 83 | 78 |  |  |
| Cc1c(C(O)Cc2ccccc2)cc2n(c1=O)Cc1c-2nc2ccccc2c1[Si](C)(C)C (racemic) [5Aε] | 54 | 93 |  |  |
| Cc1c(C(O)C(C)(C)C)cc2n(c1=O)Cc1c-2nc2ccc(F)cc2c1[Si](C)(C)C (racemic) [5Bβ] | 74 | 102 |  |  |
| Cc1c(C(O)CCC2CCCCC2)cc2n(c1=O)Cc1c-2nc2ccc(F)cc2c1[Si](C)(C)C (racemic) [5Bδ] | 78 | 103 |  |  |
| Cc1ccc2nc3c(c([Si](C)(C)C)c2c1)Cn1c-3cc(C(O)C(C)(C)C)c(C)c1=O (racemic) [5Cβ] | 72 | 80 |  |  |
| Cc1ccc2nc3c(c([Si](C)(C)C)c2c1)Cn1c-3cc(C(O)CCC2CCCCC2)c(C)c1=O (racemic) [5Cδ] | 41 | 103 |  |  |
| Cc1ccc2nc3c(c([Si](C)(C)C)c2c1)Cn1c-3cc(C(O)Cc2ccccc2)c(C)c1=O (racemic) [5Cε] | 87 | 93 |  |  |
| CCC(O)c1cc2n(c(=O)c1C)Cc1c-2nc2ccc(OC)cc2c1[Si](C)(C)C (racemic) [5Dα] | 88 | 78 |  |  |
| COc1ccc2nc3c(c([Si](C)(C)C)c2c1)Cn1c-3cc(C(O)Cc2ccccc2)c(C)c1=O (racemic) [5Dε] | 48 | 70 |  |  |
| CCCCCCc1c2c(nc3ccccc13)-c1cc(C(O)CC)c(C)c(=O)n1C2 (racemic) [8Aα] | 42 | 83 |  |  |
| CCCCCCc1c2c(nc3ccccc13)-c1cc(C(O)Cc3ccccc3)c(C)c(=O)n1C2 (racemic) [8Aε] | 58 | 71 |  |  |
| CCCCCCc1c2c(nc3ccc(F)cc13)-c1cc(C(O)C(C)(C)C)c(C)c(=O)n1C2 (racemic) [8Bβ] | 50 | 97 |  |  |
| CCCCCCc1c2c(nc3ccc(F)cc13)-c1cc(C(O)Cc3ccccc3)c(C)c(=O)n1C2 (racemic) [8Bε] | 92 | 84 |  |  |
| CCCCCCc1c2c(nc3ccc(C)cc13)-c1cc(C(O)CC)c(C)c(=O)n1C2 (racemic) [8Cα] | 84 | 65 |  |  |
| CCCCCCc1c2c(nc3ccc(C)cc13)-c1cc(C(O)C(C)(C)C)c(C)c(=O)n1C2 (racemic) [8Cβ] | 111 | 93 |  |  |

| Compound | Residual activity (%) Polymerase [1] [%] | Residual activity (%) RNase H [2] [%] | Residual activity (%) Polymerase ([1]; 10 µM) [%] | Residual activity (%) RNase H ([2]; 10 µM) [%] |
| --- | --- | --- | --- | --- |
| CCCCCCc1c2c(nc3ccc(C)cc13)-c1cc(C(O)Cc3ccccc3)c(C)c(=O)n1C2 (racemic) [8Cε] | 76 | 76 |  |  |
| CCCCCCc1c2c(nc3ccc(OC)cc13)-c1cc(C(O)CC)c(C)c(=O)n1C2 (racemic) [8Dα] | 85 | 66 |  |  |
| CCCCCCc1c2c(nc3ccc(OC)cc13)-c1cc(C(O)C(C)(C)C)c(C)c(=O)n1C2 (racemic) [8Dβ] | 68 | 67 |  |  |
| CCCCCCc1c2c(nc3ccc(OC)cc13)-c1cc(C(O)CCC3CCCCC3)c(C)c(=O)n1C2 (racemic) [8Dδ] | 81 | 63 |  |  |
| CCC(O)c1cc2n(c(=O)c1C)Cc1c-2nc2ccccc2c1[Si](C)(C)C (racemic) [AG 1M] |  |  | 89 | 73 |
| CCc1c2c(nc3ccccc13)-c1cc(C(O)CC)c(C)c(=O)n1C2 (racemic) [AG 4M] | 100 | 74 |  |  |
| CCC(=O)c1cc2n(c(=O)c1C)Cc1c-2nc2ccccc2c1-c1ccccc1 [3Aακ] | 64 | 87 |  |  |
| Cc1c(C(=O)C(C)(C)C)cc2n(c1=O)Cc1c-2nc2ccccc2c1-c1ccccc1 [3Aβκ] | 64 | 94 |  |  |
| Cc1c(C(=O)CCC2CCCCC2)cc2n(c1=O)Cc1c-2nc2ccccc2c1-c1ccccc1 [3Aδκ] | 66 | 73 |  |  |
| Cc1c(C(O)Cc2ccccc2)cc2n(c1=O)Cc1c-2nc2ccccc2c1-c1ccccc1 (stereo not drawn) [3Aε] | 34 | 99 |  |  |
| CCC(=O)c1cc2n(c(=O)c1C)Cc1c-2nc2ccc(F)cc2c1-c1ccccc1 [3Bακ] | 100 | 94 |  |  |
| Cc1c(C(=O)C(C)(C)C)cc2n(c1=O)Cc1c-2nc2ccc(F)cc2c1-c1ccccc1 [3Bβκ] | 61 | 95 |  |  |
| Cc1c(C(=O)CCC2CCCCC2)cc2n(c1=O)Cc1c-2nc2ccc(F)cc2c1-c1ccccc1 [3Bδκ] | 59 | 93 |  |  |
| CCC(=O)c1cc2n(c(=O)c1C)Cc1c-2nc2ccc(C)cc2c1-c1ccccc1 [3Cακ] | 71 | 99 |  |  |
| Cc1ccc2nc3c(c(-c4ccccc4)c2c1)Cn1c-3cc(C(=O)C(C)(C)C)c(C)c1=O [3Cβκ] | 63 | 96 |  |  |
| Cc1ccc2nc3c(c(-c4ccccc4)c2c1)Cn1c-3cc(C(O)CCC2CCCCC2)c(C)c1=O (stereo not drawn) [3Cδ] | 74 | 93 |  |  |
| Cc1ccc2nc3c(c(-c4ccccc4)c2c1)Cn1c-3cc(C(=O)CCC2CCCCC2)c(C)c1=O [3Cδκ] | 65 | 93 |  |  |
| CCC(=O)c1cc2n(c(=O)c1C)Cc1c-2nc2ccc(OC)cc2c1-c1ccccc1 [3Dακ] | 76 | 104 |  |  |
